Laboratory results reported in patent US12667572B2, “Tricyclic compounds useful in the treatment of cancer, autoimmune and inflammatory disorders” (SCHRÖDINGER, INC., priority 2021, dated 2026).

Each compound was assayed against T1, full-length MALT1 protein His-MALT1(1-824) (Homo sapiens, UniProt Q9UDY8) (assay: MALT1 protease assay, Assay 2 (1 nM MALT1, Ac-LRSR-AMC substrate)). Details: 1 nM MALT1, 50 μM Ac-LRSR-AMC, 2 h pre-incubation, 8 hr incubation at RT.
T1 construct: full-length MALT1 protein His-MALT1(1-824); His (N); made in house; host or cells: baculovirus-infected insect cells
T1 sequence (Q9UDY8 1-824): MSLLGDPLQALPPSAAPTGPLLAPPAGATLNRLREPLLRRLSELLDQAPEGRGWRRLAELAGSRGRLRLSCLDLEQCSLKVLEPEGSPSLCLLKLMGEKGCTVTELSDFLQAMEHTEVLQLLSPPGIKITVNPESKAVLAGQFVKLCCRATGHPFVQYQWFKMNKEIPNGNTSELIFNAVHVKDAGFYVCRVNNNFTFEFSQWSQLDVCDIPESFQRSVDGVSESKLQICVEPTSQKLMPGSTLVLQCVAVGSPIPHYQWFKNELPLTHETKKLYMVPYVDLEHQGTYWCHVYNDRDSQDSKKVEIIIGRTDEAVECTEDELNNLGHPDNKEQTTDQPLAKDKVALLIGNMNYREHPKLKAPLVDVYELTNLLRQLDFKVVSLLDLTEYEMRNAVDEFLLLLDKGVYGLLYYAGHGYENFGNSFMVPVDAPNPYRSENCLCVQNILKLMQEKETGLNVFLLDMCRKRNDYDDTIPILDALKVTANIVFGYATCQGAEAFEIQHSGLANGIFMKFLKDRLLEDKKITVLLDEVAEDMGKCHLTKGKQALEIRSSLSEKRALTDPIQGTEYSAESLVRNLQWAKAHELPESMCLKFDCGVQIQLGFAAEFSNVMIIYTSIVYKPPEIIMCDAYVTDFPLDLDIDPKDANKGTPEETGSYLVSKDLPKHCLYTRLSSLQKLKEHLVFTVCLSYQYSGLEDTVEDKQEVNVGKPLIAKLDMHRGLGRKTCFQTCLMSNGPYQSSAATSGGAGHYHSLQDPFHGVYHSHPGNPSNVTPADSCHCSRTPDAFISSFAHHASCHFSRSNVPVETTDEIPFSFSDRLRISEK
Format: biochemical
In short: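 Full-length His-MALT1(1-824) from baculovirus-infected insect cells, pre-incubated with compound 2 h at RT (0.1% DMSO). Then 50 μM Ac-LRSR-AMC added. Buffer was Tris pH 7.5 with 600 mM sodium citrate, DTT, EDTA and BSA. Fluorescence (ex 355/em 460 nm) was read after 8 h at RT and normalized to high/low controls. IC50 from non-linear regression.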
Work on `CC1(C)CC(C(=O)Nc2ccnc(C(F)(F)F)c2)c2cnn3cc(C(F)F)nc3c21` (single isomer, unassigned) [Example 201, 2-(difluoromethyl)-9,9-dimethyl-N-(2-(trifluoromethyl)pyridin-4-yl)-8,9-dihydro-7H-cyclopenta[d]imidazo[1,2-b]pyridazine-7-carboxamide] yielded an IC50 of 100 to 1000 nM.
`Cc1c(F)nn2c3c(cnc12)C(C(=O)Nc1cnc(-n2nccn2)c(Cl)c1)CC3(C)C` (single isomer, unassigned) [Example 114, N-(5-chloro-6-(2H-1,2,3-triazol-2-yl)pyridin-3-yl)-2-fluoro-3,8,8-trimethyl-7,8-dihydro-6H-cyclopenta[e]pyrazolo[1,5-a]pyrimidine-6-carboxamide] showed an IC50 of 100 to 1000 nM.
Compound `Cc1cc(NC(=O)[C@H]2CC(C)(C)c3c2cnc2cc(F)nn32)cnc1-n1nccn1` (single isomer, unassigned) [Example 183] has an IC50 of 10 to 100 nM.
Compound `CC1(C)O[C@H](C(=O)Nc2cnc(-n3nccn3)c(Cl)c2)c2cnc3cc(Cl)nn3c21` (single isomer, unassigned) [Example 71, 2-chloro-N-(5-chloro-6-(2H-1,2,3-triazol-2-yl)pyridin-3-yl)-8,8-dimethyl-6,8-dihydrofuro[3,4-e]pyrazolo[1,5-a]pyrimidine-6-carboxamide] has an IC50 of 100 to 1000 nM.
`Cc1cc(NC(=O)C2CC(C)(C)c3c2cnc2cc(F)nn32)cnc1-c1ccn(C)n1` (stereo not shown) [Example 177, 2-fluoro-8,8-dimethyl-N-(5-methyl-6-(1-methyl-1H-pyrazol-3-yl)pyridin-3-yl)-7,8-dihydro-6H-cyclopenta[e]pyrazolo[1,5-a]pyrimidine-6-carboxamide] showed an IC50 of 100 to 1000 nM.
For `O=C(Nc1cnc(C(O)C(F)F)c(Cl)c1)C1CC2(CCC2)c2c1cnc1cc(F)nn21` (single isomer, unassigned) [Example 133, N-(5-chloro-6-(2,2-difluoro-1-hydroxyethyl)pyridin-3-yl)-2′-fluoro-6′,7′-dihydrospiro[cyclobutane-1,8′-cyclopenta[e]pyrazolo[1,5-a]pyrimidine]-6′-carboxamide], the IC50 was ≥ 1000 nM.
Compound `C[C@@]1(C(F)(F)F)C[C@@H](C(=O)Nc2cnc(-n3nccn3)c(C(F)F)c2)c2cnc3cc(Cl)nn3c21` (single isomer, unassigned) [Example 65, 2-chloro-N-(5-(difluoromethyl)-6-(2H-1,2,3-triazol-2-yl)pyridin-3-yl)-8-methyl-8-(trifluoromethyl)-7,8-dihydro-6H-cyclopenta[e]pyrazolo[1,5-a]pyrimidine-6-carboxamide] has an IC50 of 100 to 1000 nM.
`CC1(C)CC(C(=O)Nc2cnc(OC(F)F)c(C#N)n2)c2cnc3cc(F)nn3c21` (single isomer, unassigned) [Example 86, N-(6-cyano-5-(difluoromethoxy)pyrazin-2-yl)-2-fluoro-8,8-dimethyl-7,8-dihydro-6H-cyclopenta[e]pyrazolo[1,5-a]pyrimidine-6-carboxamide] was tested, and the IC50 was ≥ 1000 nM.
`CC1(C)C[C@@H](C(=O)Nc2cnc(-n3nccn3)c(C#N)c2)c2cnc3cc(Cl)nn3c21` (single isomer, unassigned) [Example 106, 2-chloro-N-(5-cyano-6-(2H-1,2,3-triazol-2-yl)pyridin-3-yl)-8,8-dimethyl-7,8-dihydro-6H-cyclopenta[e]pyrazolo[1,5-a]pyrimidine-6-carboxamide] gave an IC50 of 10 to 100 nM.
`O=C(Nc1cnc(-n2nccn2)c(C(F)(F)F)c1)[C@H]1C[C@@]2(CCO2)c2c1cnc1cc(Cl)nn21` (racemic) [Example 116, (trans)-N-(6-(2H-1,2,3-triazol-2-yl)-5˜(trifluoromethyl)pyridin-3-yl)-2-chloro-6,7-dihydrospiro[cyclopenta[e]pyrazolo[1,5-a]pyrimidine-8,2′-oxetane]-6-carboxamide] gave an IC50 of 100 to 1000 nM.
In the case of `CC1(C)CC(C(=O)Nc2ccnc(C(F)(F)F)c2)c2cnc3cc(C(F)F)nn3c21` (single isomer, unassigned) [Example 99, 2-(difluoromethyl)-8,8-dimethyl-N-(2-(trifluoromethyl)pyridin-4-yl)-7,8-dihydro-6H-cyclopenta[e]pyrazolo[1,5-a]pyrimidine-6-carboxamide], the IC50 is reported as 100 to 1000 nM.
With `CCNC(=O)c1ncc(NC(=O)C2CC(C)(C)c3c2cnc2cc(Cl)nn32)cc1C(F)(F)F` (stereo not shown) [Example 115, 2-chloro-N-(6-(ethylcarbamoyl)-5˜(trifluoromethyl)pyridin-3-yl)-8,8-dimethyl-7,8-dihydro-6H-cyclopenta[e]pyrazolo[1,5-a]pyrimidine-6-carboxamide] the IC50 was 10 to 100 nM.
Work on `CC1(C)C[C@@H](C(=O)Nc2cnc(-n3nccn3)c(Cl)c2)c2cnn3cc(C(F)F)nc3c21` (single isomer, unassigned) [Example 202, N-(5-chloro-6-(2H-1,2,3-triazol-2-yl)pyridin-3-yl)-2-(difluoromethyl)-9,9-dimethyl-8,9-dihydro-7H-cyclopenta[d]imidazo[1,2-b]pyridazine-7-carboxamide] yielded an IC50 of 100 to 1000 nM.
`CC1(C)CC(C(=O)Nc2cnc(-n3ncnn3)c(Cl)c2)c2cnc3cc(Cl)nn3c21` (stereo not shown) [Example 120, 2-chloro-N-(5-chloro-6-(2H-tetrazol-2-yl)pyridin-3-yl)-8,8-dimethyl-7,8-dihydro-6H-cyclopenta[e]pyrazolo[1,5-a]pyrimidine-6-carboxamide] gave an IC50 of 10 to 100 nM.
In the case of `CC(C)(O)c1ncc(NC(=O)C2CC3(CCC3)c3c2cnc2cc(F)nn32)cc1C(F)(F)F` (single isomer, unassigned) [Example 153, 2′-fluoro-N-(6-(2-hydroxypropan-2-yl)-5-(trifluoromethyl)pyridin-3-yl)-6′,7′-dihydrospiro[cyclobutane-1,8′-cyclopenta[e]pyrazolo[1,5-a]pyrimidine]-6′-carboxamide], the IC50 is reported as ≥ 1000 nM.
Compound `CC1(C)C[C@H](C(=O)Nc2cc(C(F)F)c(-c3ncco3)c(=O)[nH]2)c2cnc3cc(Cl)nn3c21` (single isomer, unassigned) [Example 58, 2-chloro-N-(4-(difluoromethyl)-5˜(oxazol-2-yl)-6-oxo-1,6-dihydropyridin-2-yl)-8,8-dimethyl-7,8-dihydro-6H-cyclopenta[e]pyrazolo[1,5-a]pyrimidine-6-carboxamide] has an IC50 of 10 to 100 nM.
With `C[C@@H](O)c1cnn(-c2ncc(NC(=O)[C@@H]3CC(C)(C)c4c3cnc3cc(Cl)nn43)cc2Cl)n1` (single isomer, unassigned) [Example 52, 2-chloro-N-(5-chloro-6-(4-(1-hydroxyethyl)-2H-1,2,3-triazol-2-yl)pyridin-3-yl)-8,8-dimethyl-7,8-dihydro-6H-cyclopenta[e]pyrazolo[1,5-a]pyrimidine-6-carboxamide] the IC50 was 100 to 1000 nM.
`Cn1nnc(-c2ncc(NC(=O)[C@@H]3CC(C)(C)c4c3cnc3cc(Cl)nn43)cc2Cl)n1` (single isomer, unassigned) [Example 142, 2-chloro-N-(5-chloro-6-(2-methyl-2H-tetrazol-5-yl)pyridin-3-yl)-8,8-dimethyl-7,8-dihydro-6H-cyclopenta[e]pyrazolo[1,5-a]pyrimidine-6-carboxamide] was tested, and the IC50 was ≥ 1000 nM.
`CC1(C)C[C@@H](C(=O)Nc2cnc(-n3nccn3)c(C#N)c2)c2cnn3cc(C(F)F)nc3c21` (single isomer, unassigned) [Example 196, N-(5-cyano-6-(2H-1,2,3-triazol-2-yl)pyridin-3-yl)-2-(difluoromethyl)-9,9-dimethyl-8,9-dihydro-7H-cyclopenta[d]imidazo[1,2-b]pyridazine-7-carboxamide] showed an IC50 of 100 to 1000 nM.
For `CC1(C)CC(C(=O)Nc2cc(C(F)F)c(-n3nccn3)c(=O)[nH]2)c2cnc3cc(Cl)nn3c21` (stereo not shown) [Example 61, 2-chloro-N-(4-(difluoromethyl)-6-oxo-5˜(2H-1,2,3-triazol-2-yl)-1,6-dihydropyridin-2-yl)-8,8-dimethyl-7,8-dihydro-6H-cyclopenta[e]pyrazolo[1,5-a]pyrimidine-6-carboxamide], the IC50 was 10 to 100 nM.
With `C[C@H](O)c1cnn(-c2ncc(NC(=O)[C@@H]3CC4(CCC4)c4c3cnc3cc(Cl)nn43)cc2Cl)n1` (single isomer, unassigned) [Example 159] the IC50 was ≥ 1000 nM.
`N#Cc1cc(NC(=O)[C@H]2CC3(CCOCC3)c3c2cnc2cc(F)nn32)cnc1OC(F)F` (single isomer, unassigned) [Example 146, N-(5-cyano-6-(difluoromethoxy)pyridin-3-yl)-2-fluoro-2′,3′,5′,6,6′,7-hexahydrospiro[cyclopenta[e]pyrazolo[1,5-a]pyrimidine-8,4′-pyran]-6-carboxamide] showed an IC50 of 10 to 100 nM.
